Measured values from publication PMC9154192 (PLoS Biology, 2022).
Values after ≈ are worked out from the molar mass of the structure shown.

Legend:
Type in all cases: cell-based, Mycobacterium tuberculosis
[1] = tested on: PP2S-resistant M. tuberculosis
[2] = tested on: PP1S-resistant M. tuberculosis
M. tuberculosis H37Rv = conditions: at 200 μg/ml and above

## COC(=O)[C@@H]1CCC(=O)N1Cc1cc2ccc(OCc3ccccc3)cc2c2cc(OC)c(OC)cc12 [PP3S, Methyl (S)-1-{[3-(Benzyloxy)-6,7-dimethoxy-9-phenanthryl]methyl}-5-oxopyrrolidine-2-carboxylate]
[1]
  MIC: > 100 µg/mL
[2]
  MIC: > 100 µg/mL

## COC(=O)[C@@H]1CCC(=O)N1Cc1cc2ccc(OC)cc2c2cc(OC)c(OC)cc12 [PP1S, (S)-N-[(2,3,6-Trimethoxy-10-phenanthryl)methyl]-pyroglutamic acid methyl ester]
[1]
  MIC: > 100 µg/mL
[2]
  MIC: > 100 µg/mL

## NC(=O)c1cnccn1 [PZA, pyrazinamide]
[1]
  MIC: > 100 µg/mL
[2]
  MIC: > 100 µg/mL

## CO[C@H]1/C=C/O[C@@]2(C)Oc3c(C)c(O)c4c(O)c(c(/C=N/N5CCN(C)CC5)c(O)c4c3C2=O)NC(=O)/C(C)=C\C=C\[C@H](C)[C@H](O)[C@@H](C)[C@@H](O)[C@@H](C)[C@H](OC(C)=O)[C@@H]1C [RIF, rifampicin, reference compound]
[1]
  MIC: 0.2 µg/mL (≈ 0.243 µM)
[2]
  MIC: 0.1 µg/mL (≈ 0.122 µM)

## [H]/N=C(/N)N[C@H]1[C@H](O)[C@@H](O)[C@H](O[C@@H]2O[C@@H](C)[C@](O)(C=O)[C@H]2O[C@@H]2O[C@@H](CO)[C@H](O)[C@@H](O)[C@@H]2NC)[C@@H](N/C(N)=N\[H])[C@@H]1O [STR, streptomycin]
[1]
  MIC: 0.4 µg/mL (≈ 0.688 µM)
[2]
  MIC: 0.2 µg/mL (≈ 0.344 µM)

## CCCCOc1ccc2cc(CN3C(=O)CC[C@H]3C(=O)OC)c3cc(OC)c(OC)cc3c2c1 [PP2S, Methyl (S)-1-((3-butoxy-6,7-dimethoxyphenanthren-9-yl)methyl)-5-oxopyrrolidine-2-carboxylate]
[1]
  MIC: > 100 µg/mL
M. tuberculosis H37Rv
  occurrence of resistant strains: did not occur directly
[2]
  MIC: > 100 µg/mL

## NNC(=O)c1ccncc1 [INH, isoniazid, reference compound]
[1]
  MIC: 0.4 µg/mL (≈ 2.92 µM)
[2]
  MIC: 0.2 µg/mL (≈ 1.46 µM)

## CC[C@@H](CO)NCCN[C@@H](CC)CO [EMB, ethambutol]
[1]
  MIC: 1.6 µg/mL (≈ 7.83 µM)
[2]
  MIC: 1.6 µg/mL (≈ 7.83 µM)
